Laboratory results as given in ChEMBL document CHEMBL5356958, “Discovery of a Highly Potent and Selective MYOF Inhibitor with Improved Water Solubility for the Treatment of Gastric Cancer” (J Med Chem, 2023).
≈ marks a conversion by molar mass, not a printed value.

Molecular target: Myoferlin (Homo sapiens, UniProt Q9NZM1)
Assay: Binding affinity to human MYOF C2D by SPR method
Settings: not given

Chain of Myoferlin (Q9NZM1 whole entry): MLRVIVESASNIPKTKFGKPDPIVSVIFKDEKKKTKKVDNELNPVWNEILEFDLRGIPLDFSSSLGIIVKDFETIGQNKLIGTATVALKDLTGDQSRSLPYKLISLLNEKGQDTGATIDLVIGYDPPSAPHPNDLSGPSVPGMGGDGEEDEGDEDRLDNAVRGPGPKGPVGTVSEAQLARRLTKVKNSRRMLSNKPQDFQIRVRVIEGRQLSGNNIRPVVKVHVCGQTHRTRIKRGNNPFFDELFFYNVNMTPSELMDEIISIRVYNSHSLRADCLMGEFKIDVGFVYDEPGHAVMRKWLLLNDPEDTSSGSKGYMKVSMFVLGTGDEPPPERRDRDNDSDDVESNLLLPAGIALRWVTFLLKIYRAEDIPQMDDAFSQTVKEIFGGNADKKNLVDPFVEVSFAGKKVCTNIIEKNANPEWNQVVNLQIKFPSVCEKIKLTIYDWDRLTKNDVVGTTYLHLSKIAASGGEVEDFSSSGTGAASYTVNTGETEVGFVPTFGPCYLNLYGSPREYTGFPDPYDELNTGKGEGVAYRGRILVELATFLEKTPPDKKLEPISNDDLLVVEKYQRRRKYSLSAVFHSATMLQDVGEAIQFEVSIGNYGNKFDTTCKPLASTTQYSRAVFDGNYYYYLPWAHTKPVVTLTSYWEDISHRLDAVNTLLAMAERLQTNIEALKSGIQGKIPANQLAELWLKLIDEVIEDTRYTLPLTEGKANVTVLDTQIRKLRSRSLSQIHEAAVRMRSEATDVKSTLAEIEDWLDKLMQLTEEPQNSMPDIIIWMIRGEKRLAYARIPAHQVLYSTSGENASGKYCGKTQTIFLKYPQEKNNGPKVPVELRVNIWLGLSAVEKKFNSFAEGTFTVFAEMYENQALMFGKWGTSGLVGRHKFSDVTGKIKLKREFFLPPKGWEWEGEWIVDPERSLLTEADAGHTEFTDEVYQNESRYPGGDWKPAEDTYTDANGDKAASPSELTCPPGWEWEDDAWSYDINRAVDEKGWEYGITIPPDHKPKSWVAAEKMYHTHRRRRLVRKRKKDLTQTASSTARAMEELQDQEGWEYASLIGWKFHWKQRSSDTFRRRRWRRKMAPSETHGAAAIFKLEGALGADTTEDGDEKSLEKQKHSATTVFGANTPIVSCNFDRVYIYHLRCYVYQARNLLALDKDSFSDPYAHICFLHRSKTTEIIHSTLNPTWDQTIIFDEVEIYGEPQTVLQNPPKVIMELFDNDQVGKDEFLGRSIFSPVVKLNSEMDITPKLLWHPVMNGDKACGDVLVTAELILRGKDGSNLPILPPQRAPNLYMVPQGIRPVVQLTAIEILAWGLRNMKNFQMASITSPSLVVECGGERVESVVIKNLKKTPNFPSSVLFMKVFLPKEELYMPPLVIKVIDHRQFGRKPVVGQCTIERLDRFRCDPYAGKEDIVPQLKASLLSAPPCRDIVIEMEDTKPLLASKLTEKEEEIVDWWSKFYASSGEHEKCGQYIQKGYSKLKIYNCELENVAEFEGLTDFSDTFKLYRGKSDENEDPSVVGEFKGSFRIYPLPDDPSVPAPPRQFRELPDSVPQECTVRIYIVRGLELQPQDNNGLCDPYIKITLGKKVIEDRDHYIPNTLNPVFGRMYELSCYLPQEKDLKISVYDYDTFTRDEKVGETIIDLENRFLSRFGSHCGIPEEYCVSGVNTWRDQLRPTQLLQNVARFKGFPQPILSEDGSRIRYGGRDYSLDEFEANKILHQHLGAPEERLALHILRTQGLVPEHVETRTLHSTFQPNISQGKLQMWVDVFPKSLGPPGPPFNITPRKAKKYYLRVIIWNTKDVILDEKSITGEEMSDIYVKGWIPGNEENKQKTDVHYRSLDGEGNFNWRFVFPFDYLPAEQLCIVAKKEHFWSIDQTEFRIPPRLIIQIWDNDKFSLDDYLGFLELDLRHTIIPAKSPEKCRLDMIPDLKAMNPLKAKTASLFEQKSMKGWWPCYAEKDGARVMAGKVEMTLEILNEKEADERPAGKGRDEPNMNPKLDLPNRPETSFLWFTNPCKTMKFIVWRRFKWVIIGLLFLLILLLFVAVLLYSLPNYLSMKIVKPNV

Compound | Kd [nM]
COc1ccccc1N1C(=O)CSC1c1cccc(C(=O)NCCCCc2ccccc2)c1 (stereo not drawn) | 1330

Test system: MGC-803
Assay: Antiproliferative activity against human MGC-803 cells incubated for 48 hrs by SRB assay
Assay type: functional, cell-based
Settings: MGC-803, 48 h

Compound | IC50 [µM]
CCc1nc(-c2ccc(OC)cc2)n(-c2cccc(C(=O)NCCCCn3nc(Br)c(Br)n3)c2)n1 | 9.8
CCc1nc(-c2ccc(OC)cc2)n(-c2cccc(C(=O)NCCCCn3ccnc3)c2)n1 | > 10
CCc1nc(-c2ccc(O)cc2)n(-c2cccc(C(=O)NCCCCn3nccn3)c2)n1 | 0.94
CCc1nc(-c2ccc(OC)cn2)n(-c2cccc(C(=O)NCCCCn3nccn3)c2)n1 | 1.7
CCc1nc(-c2ccccc2OC)n(-c2cccc(C(=O)NCCCCn3nccn3)c2)n1 | 8.31
CCc1nc(-c2ccc(OC)cc2)n(-c2cccc(C(=O)NCCCCn3cc(Br)nn3)c2)n1 | > 10
CCc1nc(-c2ncc(OC)cn2)n(-c2cccc(C(=O)NCCCCc3ccccc3)c2)n1 | 0.25
CCc1nc(-c2ccc(C)cc2)n(-c2cccc(C(=O)NCCCCn3nccn3)c2)n1 | 0.6
CCc1nc(-c2ccc(OC)cc2)n(-c2cccc(C(=O)NCCCCn3ccnn3)c2)n1 | > 10
CCc1nc(-c2ccc(C(F)(F)F)cc2)n(-c2cccc(C(=O)NCCCCn3nccn3)c2)n1 | 3.14
CCc1nc(-c2ccc(OC)cc2)n(-c2cccc(C(=O)NCCCn3nccn3)c2)n1 | > 10
CCc1nc(-c2ccccc2)n(-c2cccc(C(=O)NCCCCn3nccn3)c2)n1 | 6.83
CCc1nc(-c2ccc(OC)nc2)n(-c2cccc(C(=O)NCCCCn3nccn3)c2)n1 | 7.87
CCc1nc(-c2ncc(OC)cn2)n(-c2cccc(C(=O)NCCCCn3nccn3)c2)n1 | 0.56
CCc1nc(-c2ccc(OC)cc2)n(-c2cccc(C(=O)NCCCCc3ccncc3)c2)n1 | > 10
CCc1nc(-c2ccc([N+](=O)[O-])cc2)n(-c2cccc(C(=O)NCCCCn3nccn3)c2)n1 | 5.52
CCc1nc(-c2ccc(OC)cc2)n(-c2cccc(C(=O)NCCCCn3ncnn3)c2)n1 | 0.58
CCc1nc(-c2ccc(OC)cc2)n(-c2cccc(C(=O)NCCCCn3cc(F)cn3)c2)n1 | 10.8

Compound | IC50 [µM]
CCc1nc(-c2ccc(Br)cc2)n(-c2cccc(C(=O)NCCCCn3nccn3)c2)n1 | 11.1
CCc1nc(-c2ccc(F)cc2)n(-c2cccc(C(=O)NCCCCn3nccn3)c2)n1 | 1.37
CCc1nc(-c2ccc(OC)cc2)n(-c2cccc(C(=O)NCCCCn3ncc(Br)n3)c2)n1 | 0.27
CCc1nc(-c2ccc(Cl)cc2)n(-c2cccc(C(=O)NCCCCn3nccn3)c2)n1 | 0.73
CCc1nc(-c2ccc(OC)cc2)n(-c2cccc(C(=O)NCCCCn3cccn3)c2)n1 | 0.75
CCc1nc(-c2ccc(OC(F)(F)F)cc2)n(-c2cccc(C(=O)NCCCCn3nccn3)c2)n1 | 3.87
CCc1nc(-c2ccc(OC)cc2)n(-c2cccc(C(=O)NCCCCn3cnnn3)c2)n1 | > 10
CCc1nc(-c2ccc(OC)cc2)n(-c2cccc(C(=O)NCCCCn3cc(Br)cn3)c2)n1 | 4.38
CCc1ccc(-c2nc(CC)nn2-c2cccc(C(=O)NCCCCn3nccn3)c2)cc1 | 1.01
CCc1nc(-c2ccc(OC)cc2)n(-c2cccc(C(=O)NCCCCCCn3nccn3)c2)n1 | > 10
CCc1nc(-c2ccc(OC)cc2)n(-c2cccc(C(=O)NCCCCCn3nccn3)c2)n1 | 2.12
CCc1nc(-c2ccc(OC)cc2)n(-c2cccc(C(=O)NCCn3nccn3)c2)n1 | > 10
CCc1nc(-c2ccc(OC)cc2)n(-c2cccc(C(=O)NCCCCc3cccs3)c2)n1 | 0.52
CCc1nc(-c2ccc(OC)cc2)n(-c2cccc(C(=O)NCCCCN3CCCCC3)c2)n1 | > 10
CCc1nc(-c2cccc(OC)c2)n(-c2cccc(C(=O)NCCCCn3nccn3)c2)n1 | 7.29
CCCc1ccc(-c2nc(CC)nn2-c2cccc(C(=O)NCCCCn3nccn3)c2)cc1 | 4.07
CCc1nc(-c2ccc(OC)cc2)n(-c2cccc(C(=O)NCCCCc3ccccn3)c2)n1 | 3.24
CCc1nc(-c2ccc(OC)cc2)n(-c2cccc(C(=O)NCCCCn3cncn3)c2)n1 | > 10

Test system: MKN-45
Assay: Antiproliferative activity against human MKN-45 cells incubated for 48 hrs by SRB assay
Assay type: functional, cell-based
Settings: MKN-45, 48 h

Compound | IC50 [nM]
CCc1nc(-c2ccc(OC)cc2)n(-c2cccc(C(=O)NCCCCn3nc(Br)c(Br)n3)c2)n1 | > 10000
CCc1nc(-c2ccc(OC)cc2)n(-c2cccc(C(=O)NCCCCn3ccnc3)c2)n1 | > 10000
CCc1nc(-c2ccc(O)cc2)n(-c2cccc(C(=O)NCCCCn3nccn3)c2)n1 | 490
CCc1nc(-c2ccc(OC)cn2)n(-c2cccc(C(=O)NCCCCn3nccn3)c2)n1 | 250
CCc1nc(-c2ccccc2OC)n(-c2cccc(C(=O)NCCCCn3nccn3)c2)n1 | 2580
CCc1nc(-c2ccc(OC)cc2)n(-c2cccc(C(=O)NCCCCn3cc(Br)nn3)c2)n1 | > 10000
CCc1nc(-c2ncc(OC)cn2)n(-c2cccc(C(=O)NCCCCc3ccccc3)c2)n1 | 410
CCc1nc(-c2ccc(C)cc2)n(-c2cccc(C(=O)NCCCCn3nccn3)c2)n1 | 300
CCc1nc(-c2ccc(OC)cc2)n(-c2cccc(C(=O)NCCCCn3ccnn3)c2)n1 | > 10000
CCc1nc(-c2ccc(C(F)(F)F)cc2)n(-c2cccc(C(=O)NCCCCn3nccn3)c2)n1 | 2700
CCc1nc(-c2ccc(OC)cc2)n(-c2cccc(C(=O)NCCCn3nccn3)c2)n1 | > 10000
CCc1nc(-c2ccccc2)n(-c2cccc(C(=O)NCCCCn3nccn3)c2)n1 | 3120
CCc1nc(-c2ccc(OC)nc2)n(-c2cccc(C(=O)NCCCCn3nccn3)c2)n1 | 2750
CCc1nc(-c2ncc(OC)cn2)n(-c2cccc(C(=O)NCCCCn3nccn3)c2)n1 | 500
CCc1nc(-c2ccc(OC)cc2)n(-c2cccc(C(=O)NCCCCc3ccncc3)c2)n1 | > 10000
CCc1nc(-c2ccc([N+](=O)[O-])cc2)n(-c2cccc(C(=O)NCCCCn3nccn3)c2)n1 | 880
CCc1nc(-c2ccc(OC)cc2)n(-c2cccc(C(=O)NCCCCn3ncnn3)c2)n1 | 2860
CCc1nc(-c2ccc(OC)cc2)n(-c2cccc(C(=O)NCCCCn3cc(F)cn3)c2)n1 | 5910

Compound | IC50 [nM]
CCc1nc(-c2ccc(Br)cc2)n(-c2cccc(C(=O)NCCCCn3nccn3)c2)n1 | > 10000
CCc1nc(-c2ccc(F)cc2)n(-c2cccc(C(=O)NCCCCn3nccn3)c2)n1 | 300
CCc1nc(-c2ccc(OC)cc2)n(-c2cccc(C(=O)NCCCCn3ncc(Br)n3)c2)n1 | 260
CCc1nc(-c2ccc(Cl)cc2)n(-c2cccc(C(=O)NCCCCn3nccn3)c2)n1 | 330
CCc1nc(-c2ccc(OC)cc2)n(-c2cccc(C(=O)NCCCCn3cccn3)c2)n1 | 540
CCc1nc(-c2ccc(OC(F)(F)F)cc2)n(-c2cccc(C(=O)NCCCCn3nccn3)c2)n1 | 5140
CCc1nc(-c2ccc(OC)cc2)n(-c2cccc(C(=O)NCCCCn3cnnn3)c2)n1 | > 10000
CCc1nc(-c2ccc(OC)cc2)n(-c2cccc(C(=O)NCCCCn3cc(Br)cn3)c2)n1 | 4460
CCc1ccc(-c2nc(CC)nn2-c2cccc(C(=O)NCCCCn3nccn3)c2)cc1 | 400
CCc1nc(-c2ccc(OC)cc2)n(-c2cccc(C(=O)NCCCCCCn3nccn3)c2)n1 | 9590
CCc1nc(-c2ccc(OC)cc2)n(-c2cccc(C(=O)NCCCCCn3nccn3)c2)n1 | 6610
CCc1nc(-c2ccc(OC)cc2)n(-c2cccc(C(=O)NCCn3nccn3)c2)n1 | > 10000
CCc1nc(-c2ccc(OC)cc2)n(-c2cccc(C(=O)NCCCCc3cccs3)c2)n1 | 760
CCc1nc(-c2ccc(OC)cc2)n(-c2cccc(C(=O)NCCCCN3CCCCC3)c2)n1 | > 10000
CCc1nc(-c2cccc(OC)c2)n(-c2cccc(C(=O)NCCCCn3nccn3)c2)n1 | 9140
CCCc1ccc(-c2nc(CC)nn2-c2cccc(C(=O)NCCCCn3nccn3)c2)cc1 | 1970
CCc1nc(-c2ccc(OC)cc2)n(-c2cccc(C(=O)NCCCCc3ccccn3)c2)n1 | > 10000
CCc1nc(-c2ccc(OC)cc2)n(-c2cccc(C(=O)NCCCCn3cncn3)c2)n1 | > 10000

Test system: not listed separately
Assay: Aqueous solubility of compound in PBS at pH 2
Assay type: physicochemical
Settings: not given

Compound | solubility [µM]
CCc1nc(-c2ncc(OC)cn2)n(-c2cccc(C(=O)NCCCCc3ccccc3)c2)n1 | 1.7 (≈ 0.776 µg/mL)
CCc1nc(-c2ccc(OC)cc2)n(-c2cccc(C(=O)NCCCCn3ncnn3)c2)n1 | 877 (≈ 392 µg/mL)
CCc1nc(-c2ccc(OC)cc2)n(-c2cccc(C(=O)NCCCCn3ncc(Br)n3)c2)n1 | 21.4 (≈ 11.2 µg/mL)
CCc1nc(-c2ccc(OC)cc2)n(-c2cccc(C(=O)NCCCCn3cccn3)c2)n1 | 1120 (≈ 499 µg/mL)

Test system: not listed separately
Assay: Aqueous solubility of compound in PBS at pH 7.4
Assay type: physicochemical
Settings: not given

Compound | solubility [µM]
CCc1nc(-c2ncc(OC)cn2)n(-c2cccc(C(=O)NCCCCc3ccccc3)c2)n1 | < 1.6
CCc1nc(-c2ccc(OC)cc2)n(-c2cccc(C(=O)NCCCCn3ncnn3)c2)n1 | 194 (≈ 86.7 µg/mL)
CCc1nc(-c2ccc(OC)cc2)n(-c2cccc(C(=O)NCCCCn3ncc(Br)n3)c2)n1 | < 1.6
CCc1nc(-c2ccc(OC)cc2)n(-c2cccc(C(=O)NCCCCn3cccn3)c2)n1 | 393 (≈ 175 µg/mL)

Test system: not listed separately
Assay: Aqueous solubility of compound in PBS at pH 9
Assay type: physicochemical
Settings: not given

Compound | solubility [µM]
CCc1nc(-c2ncc(OC)cn2)n(-c2cccc(C(=O)NCCCCc3ccccc3)c2)n1 | < 1.6
CCc1nc(-c2ccc(OC)cc2)n(-c2cccc(C(=O)NCCCCn3ncnn3)c2)n1 | 186 (≈ 83.1 µg/mL)
CCc1nc(-c2ccc(OC)cc2)n(-c2cccc(C(=O)NCCCCn3ncc(Br)n3)c2)n1 | < 1.6
CCc1nc(-c2ccc(OC)cc2)n(-c2cccc(C(=O)NCCCCn3cccn3)c2)n1 | 352 (≈ 156 µg/mL)

Molecular target: hERG (KCNH2) (Homo sapiens, UniProt Q12809)
Assay: Inhibition of human ERG at 3 uM relative to control
Assay type: toxicity
Settings: not given

Chain of hERG (KCNH2) (Q12809 whole entry): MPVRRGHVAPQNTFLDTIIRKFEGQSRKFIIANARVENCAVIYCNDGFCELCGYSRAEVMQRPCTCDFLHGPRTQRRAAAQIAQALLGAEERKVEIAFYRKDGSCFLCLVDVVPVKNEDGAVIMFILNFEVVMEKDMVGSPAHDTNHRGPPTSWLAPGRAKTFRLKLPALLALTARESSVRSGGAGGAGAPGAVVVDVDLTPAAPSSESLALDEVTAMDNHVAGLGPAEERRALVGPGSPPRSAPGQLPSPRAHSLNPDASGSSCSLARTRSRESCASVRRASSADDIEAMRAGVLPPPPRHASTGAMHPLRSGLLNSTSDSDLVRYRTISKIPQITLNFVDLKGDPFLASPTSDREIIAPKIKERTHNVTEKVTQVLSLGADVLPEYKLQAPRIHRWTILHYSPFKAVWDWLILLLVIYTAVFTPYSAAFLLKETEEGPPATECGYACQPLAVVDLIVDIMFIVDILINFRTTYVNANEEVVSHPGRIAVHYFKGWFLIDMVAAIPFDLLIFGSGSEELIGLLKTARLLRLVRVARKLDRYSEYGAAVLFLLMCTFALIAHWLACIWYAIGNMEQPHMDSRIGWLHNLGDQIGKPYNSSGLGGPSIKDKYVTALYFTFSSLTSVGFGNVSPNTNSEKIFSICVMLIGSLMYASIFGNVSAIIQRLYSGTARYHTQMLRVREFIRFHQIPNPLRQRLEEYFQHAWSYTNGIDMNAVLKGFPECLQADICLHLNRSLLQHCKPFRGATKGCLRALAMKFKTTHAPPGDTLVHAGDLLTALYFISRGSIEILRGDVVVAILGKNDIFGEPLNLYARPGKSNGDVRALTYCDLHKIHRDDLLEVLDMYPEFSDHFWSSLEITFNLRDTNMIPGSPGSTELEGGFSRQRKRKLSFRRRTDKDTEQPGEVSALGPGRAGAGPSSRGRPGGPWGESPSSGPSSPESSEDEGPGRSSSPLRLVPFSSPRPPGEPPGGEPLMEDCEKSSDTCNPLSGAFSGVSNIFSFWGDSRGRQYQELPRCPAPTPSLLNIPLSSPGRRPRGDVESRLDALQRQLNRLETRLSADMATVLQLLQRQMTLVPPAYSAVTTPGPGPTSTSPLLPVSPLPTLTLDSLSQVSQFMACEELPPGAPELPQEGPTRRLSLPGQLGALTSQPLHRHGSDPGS

Compound | inhibition at 3 µM [%]
COc1cc(N)c(Cl)cc1C(=O)NC1CCN(CCCOc2ccc(F)cc2)CC1OC (stereo not drawn) [CISAPRIDE] | 107

Test system: MKN-45
Assay: Antitumor activity against human MKN-45 cells xenografted in BALB/c mouse assessed as tumor growth inhibition at 15 mg/kg/day, ip measured every 3 days for 21 days
Assay type: functional
Settings: MKN-45, 504 h, time 21 day, read-out: TGI

Compound | inhibition in vivo at 15 mg/kg/day [%]
O=c1[nH]cc(F)c(=O)[nH]1 [FLUOROURACIL] | 39.2

Test system: MKN-45
Assay: Antitumor activity against human MKN-45 cells xenografted in BALB/c mouse assessed as tumor growth inhibition at 30 mg/kg/day, ip measured every 3 days for 21 days
Assay type: functional
Settings: MKN-45, 504 h, time 21 day, read-out: TGI

Compound | inhibition in vivo at 30 mg/kg/day [%]
CCc1nc(-c2ncc(OC)cn2)n(-c2cccc(C(=O)NCCCCc3ccccc3)c2)n1 | 52.2
